Columns and labels:
human recombinant HDAC6 = biological target: T1, human recombinant HDAC6 (Homo sapiens, UniProt Q9UBN7); test: HDAC6 enzyme activity inhibition assay (in vitro, fluorimetric); assay type: biochemical; settings: for HDAC6 selectivity (fold): HDAC6 selectivity over HDAC1; for IC50: human recombinant HDAC6, fluorimetric kit, same protocol as HDAC1
T1 construct: purchased Calbiochem 382180
T1 sequence (Q9UBN7 1-1215): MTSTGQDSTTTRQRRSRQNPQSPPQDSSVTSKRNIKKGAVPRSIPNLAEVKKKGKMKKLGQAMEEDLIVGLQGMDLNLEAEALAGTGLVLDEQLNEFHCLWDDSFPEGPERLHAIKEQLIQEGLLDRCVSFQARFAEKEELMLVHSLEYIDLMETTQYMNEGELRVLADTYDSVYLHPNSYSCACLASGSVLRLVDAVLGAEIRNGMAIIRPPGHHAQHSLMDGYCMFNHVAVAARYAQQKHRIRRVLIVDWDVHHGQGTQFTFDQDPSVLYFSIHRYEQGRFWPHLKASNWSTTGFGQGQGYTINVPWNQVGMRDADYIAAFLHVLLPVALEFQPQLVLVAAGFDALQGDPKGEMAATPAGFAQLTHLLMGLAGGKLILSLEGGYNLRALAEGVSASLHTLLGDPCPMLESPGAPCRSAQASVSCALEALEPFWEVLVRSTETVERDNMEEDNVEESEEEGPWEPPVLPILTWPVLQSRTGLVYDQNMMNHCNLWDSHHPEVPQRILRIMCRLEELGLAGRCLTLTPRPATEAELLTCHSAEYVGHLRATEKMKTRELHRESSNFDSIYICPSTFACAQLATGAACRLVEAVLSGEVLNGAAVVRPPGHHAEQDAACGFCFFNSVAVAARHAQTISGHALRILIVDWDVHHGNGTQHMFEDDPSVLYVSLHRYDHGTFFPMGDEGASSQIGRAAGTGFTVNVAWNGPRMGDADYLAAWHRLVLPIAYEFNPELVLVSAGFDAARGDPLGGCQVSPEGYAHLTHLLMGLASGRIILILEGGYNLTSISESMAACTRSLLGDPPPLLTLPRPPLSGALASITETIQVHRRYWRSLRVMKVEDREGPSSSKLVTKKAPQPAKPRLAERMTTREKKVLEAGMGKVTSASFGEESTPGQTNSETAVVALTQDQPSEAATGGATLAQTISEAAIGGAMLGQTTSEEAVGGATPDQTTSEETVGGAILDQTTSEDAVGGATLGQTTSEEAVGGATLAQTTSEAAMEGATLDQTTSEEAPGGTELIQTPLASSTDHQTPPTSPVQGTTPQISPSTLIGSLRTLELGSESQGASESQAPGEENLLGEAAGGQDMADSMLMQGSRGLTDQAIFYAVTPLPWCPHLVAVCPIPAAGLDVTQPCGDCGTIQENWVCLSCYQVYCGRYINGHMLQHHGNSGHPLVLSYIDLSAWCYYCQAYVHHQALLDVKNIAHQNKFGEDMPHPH
How it was run: (§1)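 IC50 values derive from fluorescence (Ex 360, Em 460) after developer treatment (30 min) of reactions of recombinant human HDAC1 or HDAC6 with 10 μM Fluor de Lys-SIRT1 substrate (60 min, 30 °C). Compounds were serially diluted 5-fold; 0.3 μg enzyme was used for HDAC1, with HDAC6 tested identically.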

human recombinant HDAC1 = biological target: T2, human recombinant HDAC1 (Homo sapiens, UniProt Q13547); test: HDAC1 enzyme activity inhibition assay (in vitro, fluorimetric); assay type: biochemical; settings: human recombinant HDAC1, fluorimetric kit, 30° C. 60 minutes
T2 construct: purchased Enzo Life Science BML-SE456
T2 sequence (Q13547 whole entry): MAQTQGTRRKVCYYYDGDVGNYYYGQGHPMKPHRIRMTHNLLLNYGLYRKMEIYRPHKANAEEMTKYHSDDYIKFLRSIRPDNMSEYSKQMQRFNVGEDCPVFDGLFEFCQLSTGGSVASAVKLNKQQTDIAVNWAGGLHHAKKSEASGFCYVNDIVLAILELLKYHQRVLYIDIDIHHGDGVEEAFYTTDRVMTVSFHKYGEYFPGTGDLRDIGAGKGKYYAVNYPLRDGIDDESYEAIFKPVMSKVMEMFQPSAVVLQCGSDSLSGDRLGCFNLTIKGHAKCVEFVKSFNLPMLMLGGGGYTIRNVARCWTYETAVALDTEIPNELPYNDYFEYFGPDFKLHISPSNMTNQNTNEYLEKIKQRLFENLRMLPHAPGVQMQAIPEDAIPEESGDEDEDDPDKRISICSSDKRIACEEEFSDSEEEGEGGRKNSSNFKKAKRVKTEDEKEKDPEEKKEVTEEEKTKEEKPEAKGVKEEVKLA
How it was run: as §1

Compound | HDAC6 selectivity (fold) (human recombinant HDAC6) | IC50 (human recombinant HDAC6) [nM] | IC50 (human recombinant HDAC1) [nM]
C[C@@H]1CN(Cc2ccc(C(=O)NO)cc2)C[C@H](C)N1Cc1ccccc1C1=CCN(CC(F)(F)F)CC1 [Compound 483, 4-(((3R,5S)-3,5-dimethyl-4-(2-(1-(2,2,2,2-trifluoroethyl)-1,2,3,6-tetrahydropyridin-4-yl)benzyl)piperazin-1-yl)methyl)-N-hydroxybenzamide] | 166 | 103 | 17100
CC(C)N1CC=C(c2ccccc2CN2[C@H](C)CN(Cc3ccc(C(=O)NO)cc3)C[C@@H]2C)CC1 [Compound 484, N-hydroxy-4-(((3R,5S)-4-(2-(1-isopropyl-1,2,3,6-tetrahydropyridin-4-yl)benzyl)-3,5-dimethylpiperazin-1-yl)methyl)benzamide] | 151 | 130 | 19600
CCN1CC=C(c2ccccc2CN2[C@H](C)CN(Cc3ccc(C(=O)NO)cc3)C[C@@H]2C)CC1 [Compound 485, 4-(((3R,5S)-4-(2-(1-ethyl-1,2,3,6-tetrahydropyridin-4-yl)benzyl)-3,5-dimethylpiperazin-1-yl)methyl)-N-hydroxybenzamide] | 101 | 145 | 14700
CC(=O)N1CCN(Cc2ccc(CN3[C@H](C)CN(Cc4ccc(C(=O)NO)cc4)C[C@@H]3C)cc2)CC1 [Compound 486, 4-(((3R,5S)-4-(4-((4-acetylpiperazin-1-yl)methyl)benzyl)-3,5-dimethylpiperazin-1-yl)methyl)-N-hydroxybenzamide] | >79 | 126 | > 10000
CCN(CC)Cc1cccc(C(=O)N2C[C@@H](C)N(Cc3ccc(/C=C/C(=O)NO)cc3)[C@@H](C)C2)c1 [Compound 487, (E)-3-(4-(((2S,6R)-4-(3-((diethylamino)methyl)benzoyl)-2,6-dimethylpiperazin-1-yl)methyl)phenyl)-N-hydroxyacrylamide] | 4 | 296 | 1100
C[C@@H]1CN(Cc2c[nH]c3cc(C(=O)NO)ccc23)C[C@H](C)N1Cc1ccccc1 [Compound 520, 3-(((3R,5S)-4-benzyl-3,5-dimethylpiperazin-1-yl)methyl)-N-hydroxy-1H-indole-6-carboxamide] | >11 | 860 | > 10000
C[C@@H]1CN(Cc2ccc3[nH]c(C(=O)NO)cc3c2)C[C@H](C)N1Cc1ccccc1 [Compound 569, 5-(((3R,5S)-4-benzyl-3,5-dimethylpiperazin-1-yl)methyl)-N-hydroxy-1H-indole-2-carboxamide] | 82 | 840 | > 10000
C[C@@H]1CN(Cc2ccc3cc(C(=O)NO)[nH]c3c2)C[C@H](C)N1Cc1ccccc1 [Compound 573, 6-(((3R,5S)-4-benzyl-3,5-dimethylpiperazin-1-yl)methyl)-N-hydroxy-1H-indole-2-carboxamide] | 36 | 1440 | > 10000
C[C@@H]1CN(Cc2cc3cc(C(=O)NO)ccc3o2)C[C@H](C)N1Cc1ccccc1 [Compound 574, 2-(((3R,5S)-4-benzyl-3,5-dimethylpiperazin-1-yl)methyl)-N-hydroxybenzofuran-5-carboxamide] | 4 | 810 | 3900
C[C@@H]1CN(Cc2ccc(C(=O)NO)nc2)C[C@H](C)N1Cc1cccc(CN2CCOCC2)c1 [Compound 609, 5-(((3R,5S)-3,5-dimethyl-4-(3-(morpholinomethyl)benzyl)piperazin-1-yl)methyl)-N-hydroxypicolinamide] | >13.3 | 754 | > 10000
C[C@@H]1CN(Cc2ccc(C(=O)NO)c(O)c2)C[C@H](C)N1Cc1ccccc1 [Compound 652, 4-(((3R,5S)-4-benzyl-3,5-dimethylpiperazin-1-yl)methyl)-N,2-dihydroxybenzamide] | >11 | 880 | > 10000
C[C@@H]1CN(Cc2ccc(C(=O)NO)c(O)c2)C[C@H](C)N1Cc1cccc(CN2CCOCC2)c1 [Compound 653, 4-(((3R,5S)-3,5-dimethyl-4-(3-(morpholinomethyl)benzyl)piperazin-1-yl)methyl)-N,2-dihydroxybenzamide] | >23 | 420 | > 10000
C[C@@H]1CN(Cc2ccc(C(=O)NO)cc2F)C[C@H](C)N1Cc1cccc(CN2CCOCC2)c1 [Compound 696, 4-(((3R,5S)-3,5-dimethyl-4-(3-(morpholinomethyl)benzyl)piperazin-1-yl)methyl)-3-fluoro-N-hydroxybenzamide] | >1000 | 10 | > 10000
C[C@@H]1CN(Cc2ccc(C(=O)NO)nc2)C[C@H](C)N1Cc1ccccc1 [Compound 812, 5-(((3R,5S)-4-benzyl-3,5-dimethylpiperazin-1-yl)methyl)-N-hydroxypicolinamide] | >6 | 1540 | > 10000
C[C@@H]1CN(Cc2ccc(C(=O)NO)cc2F)C[C@H](C)N1Cc1ccccc1 [Compound 813, 4-(((3R,5S)-4-benzyl-3,5-dimethylpiperazin-1-yl)methyl)-3-fluoro-N-hydroxybenzamide] | 1720 | 10 | 17200
C[C@@H]1CN(C(=O)c2ccc(C(=O)NO)cc2)C[C@H](C)N1Cc1ccccc1 [Compound 814, 4-((3R,5S)-4-benzyl-3,5-dimethylpiperazine-1-carbonyl)-N-hydroxybenzamide] | 20 | 990 | 20600
C[C@@H]1CN(S(=O)(=O)c2ccc(C(=O)NO)cc2)C[C@H](C)N1Cc1ccccc1 [Compound 818, 4-(((3R,5S)-4-benzyl-3,5-dimethylpiperazin-1-yl)sulfonyl)-N-hydroxybenzamide] | >11 | 870 | > 10000
C[C@@H]1CN(S(=O)(=O)c2ccc(CC(=O)NO)cc2)C[C@H](C)N1Cc1ccccc1 [Compound 820, 2-(4-(((3R,5S)-4-benzyl-3,5-dimethylpiperazin-1-yl)sulfonyl)phenyl)-N-hydroxyacetamide] | 9 | 250 | 2250
C[C@@H]1CN(CC2CCC(C(=O)NO)CC2)C[C@H](C)N1Cc1ccccc1 (stereo partly drawn) [Compound 822, 4-(((3R,5S)-4-benzyl-3,5-dimethylpiperazin-1-yl)methyl)-N-hydroxycyclohexane-1-carboxamide] | >35 | 280 | > 10000
C[C@@H]1CN(C(=O)c2ccc(CC(=O)NO)cc2)C[C@H](C)N1Cc1ccccc1 [Compound 823, 2-(4-((3R,5S)-4-benzyl-3,5-dimethylpiperazine-1-carbonyl)phenyl)-N-hydroxyacetamide] | 66 | 40 | 2700
C[C@@H]1CN(C(=O)c2ccc(CCC(=O)NO)cc2)C[C@H](C)N1Cc1ccccc1 [Compound 824, 3-(4-((3R,5S)-4-benzyl-3,5-dimethylpiperazine-1-carbonyl)phenyl)-N-hydroxypropanamide] | 22 | 180 | 4100

Source: patent publication US10287255B2, “Compounds as histone deacetylase 6 inhibitors and pharmaceutical compositions comprising the same” (CHONG KUN DANG PHARMACEUTICAL CORP., priority 2014, dated 2019)
